Test results published in patent publication US20120157401A1, “METHODS FOR TREATING NEUROFIBROMATOSIS” (PTC Therapeutics, Inc., priority 2009, published 2012).
pEC50: −log10 of the molar value. Like-named read-outs stand apart in the source and are kept apart here.

Test system: hypoxia-inducible endogenous VEGF expression
Test: Hypoxia-inducible endogenous VEGF expression ELISA in HeLa cells, dose-response EC50 (Table 3)
Type: cell-based, human
Conditions: for pEC50: HeLa cells, hypoxic conditions (1% O2), read-out: ELISA EC50; for EC50: HeLa, read-out: ELISA EC50 μM
Summary of the method: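 HeLa cells kept 24-48 h under hypoxia (1% O2, 5% CO2, nitrogen balance) with or without compound, e.g. seven concentrations; secreted VEGF in conditioned medium quantified by ELISA against a standard curve. Parallel Cell Titer Glo viability under identical conditions excludes cytotoxicity.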

[1] = Homo sapiens, VEGF ELISA of conditioned media
[2] = Homo sapiens, 24-48 hours, VEGF in conditioned media

O=C(NCC(O)CCOc1ccc([C@H]2c3[nH]c4ccc(Cl)cc4c3CCN2C(=O)Oc2ccc(Cl)cc2)cc1)c1cccnc1 (some centres unmarked) [Compound 1628]
pEC50 [1]: > 8.10

O=C(Oc1ccc(Cl)cc1)N1CCc2c([nH]c3ccc(Cl)cc23)C1c1ccc(OCCCCNCCO)cc1 (centres unmarked) [Compound 699]
EC50 (Homo sapiens): 0.008 to 0.04 µM

Cc1ccc(OC(=O)N2CCc3c([nH]c4ccc(Cl)cc34)[C@@H]2c2ccc(OCCC(O)CNS(C)(=O)=O)cc2)cc1 (some centres unmarked) [Compound 1668]
pEC50 [1]: 7.40 to 8.10

O=C(Oc1ccc(Cl)cc1)N1CCc2c([nH]c3ccc(Cl)cc23)[C@@H]1c1ccc(OCCC(O)Cn2cncn2)cc1 (some centres unmarked) [Compound 1282]
pEC50 [2]: > 8.10

CCCOC(=O)NCC(O)CCOc1ccc([C@H]2c3[nH]c4ccc(Cl)cc4c3CCN2C(=O)Oc2ccc(Cl)cc2)cc1 (some centres unmarked) [Compound 1666]
pEC50 [1]: > 8.10

O=C(Oc1ccc(Cl)cc1)N1CCc2c([nH]c3ccc(Cl)cc23)[C@@H]1c1ccc(OC[C@@H](O)CO)cc1 [Compound 1224]
pEC50 [2]: > 8.10

O=C(Oc1ccc(Cl)cc1)N1CCc2c([nH]c3ccc(Cl)cc23)C1c1ccc(OCCCn2cncn2)cc1 (centres unmarked) [Compound 391]
pEC50 [2]: > 8.10

CC1(C)OC[C@@H](COc2ccc([C@H]3c4[nH]c5ccc(Cl)cc5c4CCN3C(=O)Oc3ccc(Cl)cc3)cc2)O1 [Compound 1260]
pEC50 [2]: > 8.10

O=C(Oc1ccccc1Cl)N1CCc2c([nH]c3ccc(Cl)cc23)C1c1ccc(OCCCn2cncn2)cc1 (centres unmarked) [Compound 926]
pEC50 [2]: > 8.10

O=C(O)c1ccc(C2c3[nH]c4ccc(Cl)cc4c3CCN2C(=O)Oc2ccc(F)cc2)cc1 (centres unmarked) [Compound 581]
pEC50 [2]: < 6.00

CN1CCN(CCCOc2cccc(C3c4[nH]c5ccc(Cl)cc5c4CCN3C(=O)Oc3ccc(F)cc3)c2)CC1 (centres unmarked) [Compound 1113]
EC50 (Homo sapiens): 0.2 to 1 µM

COCCOC(=O)Nc1ccc(C2c3[nH]c4ccc(Cl)cc4c3CCN2C(=O)Oc2ccc(Cl)cc2)cc1 (centres unmarked) [Compound 470]
pEC50 [2]: 7.40 to 8.10

O=C(Oc1ccc(Cl)cc1)N1CCc2c([nH]c3ccc(Cl)cc23)C1c1ccc(OCCCN2CCN(CCO)CC2)cc1 (centres unmarked) [Compound 942]
EC50 (Homo sapiens): 0.008 to 0.04 µM

O=C(Oc1ccc(Cl)cc1)N1CCc2c([nH]c3ccc(Cl)cc23)[C@@H]1c1ccc(OCCC(O)CNS(=O)(=O)C2CC2)cc1 (some centres unmarked) [Compound 1639]
pEC50 [1]: > 8.10

C=CCOc1ccc(C2c3[nH]c4ccc(Cl)cc4c3CCN2C(=O)Oc2ccccc2)cc1 (centres unmarked) [Compound 413]
pEC50 [2]: > 8.10

N#CCOc1ccc(C2c3[nH]c4ccc(Cl)cc4c3CCN2C(=O)Oc2ccc(F)cc2)cc1 (centres unmarked) [Compound 1548]
pEC50 [1]: 7.40 to 8.10

O=C(Oc1ccc(F)cc1)N1CCc2c([nH]c3ccc(Cl)cc23)C1c1ccc(OCC(O)CN2CCOCC2)cc1 (centres unmarked) [Compound 638]
EC50 (Homo sapiens): < 0.008 µM

CC(=O)N1CCN(CC(O)COc2ccc(C3c4[nH]c5ccc(Cl)cc5c4CCN3C(=O)Oc3ccc(Cl)cc3)cc2)CC1 (centres unmarked) [Compound 415]
EC50 (Homo sapiens): < 0.008 µM

COCCCNCCCCOc1ccc(C2c3[nH]c4ccc(Cl)cc4c3CCN2C(=O)Oc2ccc(F)cc2)cc1 (centres unmarked) [Compound 737]
EC50 (Homo sapiens): 0.008 to 0.04 µM

O=C(Oc1ccc(Cl)cc1)N1CCc2c([nH]c3ccc(Cl)cc23)[C@@H]1c1ccc(O)cc1 [Compound 1160]
pEC50 [2]: > 8.10

Cc1ccc(OC(=O)N2CCc3c([nH]c4ccc(Cl)cc34)[C@@H]2c2ccc(OCC(C)(CO)CO)cc2)cc1 [Compound 1297]
pEC50 [2]: 7.40 to 8.10

CS(=O)(=O)CCCOc1ccc([C@H]2c3[nH]c4ccc(Cl)cc4c3CCN2C(=O)Oc2ccc(Cl)cc2)cc1 [Compound 1648]
pEC50 [1]: > 8.10

O=C(Oc1ccc(F)cc1)N1CCc2c([nH]c3ccc(Cl)cc23)C1c1ccc(OCCCCCCN2CCCCC2)cc1 (centres unmarked) [Compound 777]
EC50 (Homo sapiens): < 0.008 µM

O=C(Oc1ccc(F)cc1)N1CCc2c([nH]c3ccc(Cl)cc23)C1c1ccc(OCCn2ccnn2)cc1 (centres unmarked) [Compound 833]
pEC50 [2]: 6.70 to 7.40

CCS(=O)(=O)NCC(O)CCOc1ccc([C@H]2c3[nH]c4ccc(Cl)cc4c3CCN2C(=O)Oc2ccc(Cl)cc2)cc1 (some centres unmarked) [Compound 1638]
pEC50 [1]: > 8.10

O=C(Oc1ccc(F)cc1)N1CCc2c([nH]c3ccc(Cl)cc23)[C@@H]1c1ccc(OCC[C@H](O)CO)cc1 [Compound 1293]
pEC50 [2]: > 8.10

O=C1CN(CCCOc2ccc(C3c4[nH]c5ccc(Cl)cc5c4CCN3C(=O)Oc3ccc(Cl)cc3)cc2)C(=O)N1 (centres unmarked) [Compound 1672]
EC50 (Homo sapiens): < 0.008 µM

CCS(=O)(=O)NCC(O)COc1ccc(C2c3[nH]c4ccc(Cl)cc4c3CCN2C(=O)Oc2ccc(Cl)cc2)cc1 (centres unmarked) [Compound 1565]
pEC50 [1]: 7.40 to 8.10

CCC(CO)(CO)COc1ccc([C@H]2c3[nH]c4ccc(Cl)cc4c3CCN2C(=O)Oc2ccc(F)cc2)cc1 [Compound 1328]
pEC50 [1]: > 8.10

COc1ccc(OC(=O)N2CCc3c([nH]c4ccc(Cl)cc34)C2c2ccc(OCCCN3CCOCC3)cc2)cc1 (centres unmarked) [Compound 1030]
EC50 (Homo sapiens): 0.008 to 0.04 µM

CN(C)CCCOc1ccc(C2c3[nH]c4ccc(Cl)cc4c3CCN2C(=O)Oc2ccc(Br)cc2)cc1 (centres unmarked) [Compound 468]
EC50 (Homo sapiens): 0.008 to 0.04 µM

N#Cc1cn(CCOc2ccc(C3c4[nH]c5ccc(Cl)cc5c4CCN3C(=O)Oc3ccc(F)cc3)cc2)nc1N (centres unmarked) [Compound 1441]
pEC50 [1]: 7.40 to 8.10

COc1ccc(C2c3[nH]c4ccc(Cl)cc4c3CCN2C(=O)Oc2ccc(F)cc2)cc1 (centres unmarked) [Compound 410]
pEC50 (24-48 hours, VEGF in conditioned media): > 8.10

COCCOC(=O)NCC(O)COc1ccc(C2c3[nH]c4ccc(Cl)cc4c3CCN2C(=O)Oc2ccc(Cl)cc2)cc1 (centres unmarked) [Compound 1564]
pEC50 [1]: > 8.10

O=C(Oc1ccc(Cl)cc1)N1CCc2c([nH]c3ccc(Cl)cc23)C1c1ccc(OCCCCn2cncn2)cc1 (centres unmarked) [Compound 706]
pEC50 [2]: > 8.10

Cc1ccc(OC(=O)N2CCc3c([nH]c4ccc(Cl)cc34)[C@@H]2c2ccc(OCCC(O)Cn3ccnn3)cc2)cc1 (some centres unmarked) [Compound 1289]
pEC50 [2]: > 8.10

CS(=O)(=O)CCCOc1ccc(C2c3[nH]c4ccc(Cl)cc4c3CCN2C(=O)Oc2ccc(Cl)cc2)cc1 (centres unmarked) [Compound 1551]
pEC50 [1]: > 8.10

O=C(Oc1ccc(F)cc1)N1CCc2c([nH]c3ccc(Cl)cc23)C1c1ccc(F)cc1 (centres unmarked) [Compound 452]
pEC50 [2]: 7.40 to 8.10

O=C(Oc1ccc(F)cc1)N1CCc2c([nH]c3ccc(Cl)cc23)C1c1ccc(OCCCN2CCOCC2)cc1 (centres unmarked) [Compound 989]
EC50 (Homo sapiens): < 0.008 µM

O=C(Oc1ccccc1)N1CCc2c([nH]c3ccc(Cl)cc23)C1c1ccc(OCCCCl)cc1 (centres unmarked) [Compound 710]
pEC50 [2]: > 8.10

O=C(Oc1ccc(Br)cc1)N1CCc2c([nH]c3ccc(Cl)cc23)C1c1ccc(OCC(O)CO)cc1 (centres unmarked) [Compound 630]
pEC50 [2]: > 8.10

COc1ccc(C2c3[nH]c4ccc(Cl)cc4c3CCN2C(=O)Oc2ccc(Cl)cc2)cc1OCCCN1CCOCC1 (centres unmarked) [Compound 1096]
EC50 (Homo sapiens): 0.2 to 1 µM

COc1ccc(C2c3[nH]c4ccc(Cl)cc4c3CCN2C(=O)Oc2ccc(Cl)cc2)cc1OCCCCN1CCOCC1 (centres unmarked) [Compound 1097]
EC50 (Homo sapiens): 0.04 to 0.2 µM

CCCN(CCC)CCCOc1ccc([C@H]2c3[nH]c4ccc(Cl)cc4c3CCN2C(=O)Oc2ccc(Cl)cc2)cc1 [Compound 1234]
EC50 (Homo sapiens): < 0.008 µM

Cc1ccc(OC(=O)N2CCc3c([nH]c4ccc(Cl)cc34)C2c2ccc(OCC[C@H](O)CO)cc2)cc1 (some centres unmarked) [Compound 1180]
pEC50 [2]: > 8.10

N#CCOc1ccc(C2c3[nH]c4ccc(Cl)cc4c3CCN2C(=O)Oc2ccc(Cl)cc2)cc1 (centres unmarked) [Compound 1520]
pEC50 [1]: > 8.10

COCCN(CCOC)CC(O)COc1ccc(C2c3[nH]c4ccc(Cl)cc4c3CCN2C(=O)Oc2ccc(Cl)cc2)cc1 (centres unmarked) [Compound 918]
EC50 (Homo sapiens): < 0.008 µM

C#CCOc1ccc([C@H]2c3[nH]c4ccc(Cl)cc4c3CCN2C(=O)Oc2ccc(Cl)cc2)cc1 [Compound 1612]
pEC50 [1]: > 8.10

Cc1ccc2[nH]c3c(c2c1)CCN(C(=O)Oc1ccc(Cl)cc1)C3c1ccc(C(C)C)cc1 (centres unmarked) [Compound 344]
pEC50 [2]: 7.40 to 8.10

O=C(Oc1ccc(F)cc1)N1CCc2c([nH]c3ccc(Cl)cc23)C1c1ccc(OCCCn2nccn2)cc1 (centres unmarked) [Compound 1017]
pEC50 [2]: > 8.10

O=C(Oc1ccc(Cl)cc1)N1CCc2c([nH]c3ccc(Cl)cc23)C1c1ccc(OCCCI)cc1 (centres unmarked) [Compound 617]
pEC50 [2]: 7.40 to 8.10

O=C(Oc1ccc(Cl)cc1)N1CCc2c([nH]c3ccc(Cl)cc23)C1c1ccc(OCCCN(CCO)CCO)cc1 (centres unmarked) [Compound 1184]
EC50 (Homo sapiens): < 0.008 µM

COc1ccc(OC(=O)N2CCc3c([nH]c4ccc(Cl)cc34)C2c2ccc(OCC3CCCN(C)C3)cc2)cc1 (centres unmarked) [Compound 981]
EC50 (Homo sapiens): 0.04 to 0.2 µM

Cc1ccc(OC(=O)N2CCc3c([nH]c4ccc(Cl)cc34)C2c2ccc(OCC3CCCN(C)C3)cc2)cc1 (centres unmarked) [Compound 951]
EC50 (Homo sapiens): 0.008 to 0.04 µM

COc1cc(C2c3[nH]c4ccc(Cl)cc4c3CCN2C(=O)Oc2ccc(C)cc2)ccc1OCCCn1nccn1 (centres unmarked) [Compound 1194]
pEC50 [2]: > 8.10

Cc1ccc(OC(=O)N2CCc3c([nH]c4ccc(Cl)cc34)C2c2ccc(OCC[C@H]3COC(C)(C)O3)cc2)cc1 (some centres unmarked) [Compound 1170]
pEC50 [2]: > 8.10

O=C(Oc1ccc(F)cc1)N1CCc2c([nH]c3ccc(Cl)cc23)C1c1ccc(OCC2OCCO2)cc1 (centres unmarked) [Compound 1051]
pEC50 [2]: > 8.10

COc1ccc(OC(=O)N2CCc3c([nH]c4ccc(Cl)cc34)C2c2ccc(OC)cc2F)cc1 (centres unmarked) [Compound 1267]
pEC50 [2]: 7.40 to 8.10

O=C(Oc1ccc(Cl)cc1)N1CCc2c([nH]c3ccc(Cl)cc23)[C@H]1c1ccc(OCCCCl)cc1 [Compound 1126]
pEC50 [2]: 6.00 to 6.70

O=C(Oc1ccc(Cl)cc1)N1CCc2c([nH]c3ccc(Cl)cc23)[C@H]1c1ccc(OCCCn2nccn2)cc1 [Compound 1127]
pEC50 [2]: 6.70 to 7.40

O=C(Oc1ccc(F)cc1)N1CCc2c([nH]c3ccc(Cl)cc23)C1c1ccc(OCCCCNCCCn2ccnc2)cc1 (centres unmarked) [Compound 741]
EC50 (Homo sapiens): 0.04 to 0.2 µM

C=CCOc1ccc(C2c3[nH]c4ccc(Cl)cc4c3CCN2C(=O)Oc2ccc(F)cc2)cc1 (centres unmarked) [Compound 409]
pEC50 [2]: > 8.10

O=C(Oc1ccc(Cl)cc1)N1CCc2c([nH]c3ccc(Cl)cc23)[C@@H]1c1ccc(Oc2ccc3ccccc3n2)cc1 [Compound 1572]
pEC50 [1]: > 8.10

COCCOCCOc1ccc(C2c3[nH]c4ccc(Cl)cc4c3CCN2C(=O)Oc2ccc(C)cc2)cc1 (centres unmarked) [Compound 677]
pEC50 [2]: 7.40 to 8.10

O=C(Oc1ccc(F)cc1)N1CCc2c([nH]c3ccc(Cl)cc23)C1c1ccc(OCCNc2ncncn2)cc1 (centres unmarked) [Compound 1440]
pEC50 [1]: > 8.10
